Measurements from patent US20230033195A1, “METHODS AND COMPOSITIONS FOR IMPROVING COGNITIVE FUNCTION” (THE JOHNS HOPKINS UNIVERSITY, priority 2011, published 2023).

What was measured:
[1] = system: memory-impaired aged rats; details: cited from earlier work
[2] = aged rats, chronic subcutaneous 100 mg/kg/day; cited from earlier work
aged-impaired (AI) rats = assay: eight-arm Radial Arm Maze (RAM) task with one-hour delay, spatial memory retention; assay type: in vivo, rat

SMILES | performance in a memory test ([1]; chronic subcutaneous 100 mg/kg/day) | blood total valproate level [2] [µg/ml plasma] | treatment of cognitive impairment ([1]; chronic subcutaneous 50 mg/kg/day) | effective in reducing the number of errors, on its own (aged-impaired (AI) rats; valproate subcutaneous 25 mg/kg) | effective in reducing the number of errors, on its own (aged-impaired (AI) rats; valproate subcutaneous 50 mg/kg) | effective in reducing the number of errors, on its own (aged-impaired (AI) rats; valproate subcutaneous 100 mg/kg)
CCCC(CCC)C(=O)[O-].[Na+] [sodium valproate] | significantly improved | 10 | – | – | – | –
CCCC(CCC)C(=O)O [valproate, 2-propylpentanoate] | – | – | not effective | not | not | effective
